Assay [1] has as its system neutrophilic infiltration in mouse lung. Kind of assay: Effect on lipopolysaccharide-induced neutrophilic infiltration in mouse lung (BAL fluid neutrophil count). It is filed as in vivo. The following applies: oral, BALB/c male mouse, 30 min before LPS aerosol, BAL neutrophil count after 5 hours relative to control. As for the experimental part:
Effect of lipopolysaccharide induction on neutrophilic infiltration in mouse lung A compound to be tested was orally administrated to a mouse (BALB/c, male), and after 30 minutes, the mouse was placed in a plastic container. Lipopolysaccharide (0.3 mg/mL) dissolved in physiological saline was aerosolized with an ultrasonic wave nebulizer (NE-U17, OMRON Corporation), and exposed to the mouse for 10 minutes. After 5 hours, the anesthetized mouse was sacrificed by exsanguination. […] This operation was repeated 3 times, to obtain a BAL fluid. The BAL fluid was centrifuged at 4° C. and ×200 g for 5 minutes, and the pellet was suspended in a physiological saline containing 0.1% BSA. The number of white blood cells was counted using Turks solution with a microscope, and the total white blood cell count was calculated. The white blood cells were fixed on a glass slide using Cytospin 3 (Thermo BioAnalysis Japan K. K.). The cells were stained with Diff-Quik (SYSMEX INTERNATIONAL REAGENTS CO., LTD.), and the number thereof was counted with a microscope, and the neutrophil ratio was calculated. The neutrophil ratio was multiplied by the total white blood cell count to calculate the total neutrophil count. An effect of the compound to be tested represents a percentage (%) of suppression ratio relative to the neutrophil count in a control.

A further assay has as its target T1, human FPRL1 (Homo sapiens, UniProt P25090).
T1 construct: expressed in transfected cells; host or cells: HEK293 (JCRB9068, NIBIO), transient co-transfection with pCMV-script vectors
T1 sequence (P25090 1-351): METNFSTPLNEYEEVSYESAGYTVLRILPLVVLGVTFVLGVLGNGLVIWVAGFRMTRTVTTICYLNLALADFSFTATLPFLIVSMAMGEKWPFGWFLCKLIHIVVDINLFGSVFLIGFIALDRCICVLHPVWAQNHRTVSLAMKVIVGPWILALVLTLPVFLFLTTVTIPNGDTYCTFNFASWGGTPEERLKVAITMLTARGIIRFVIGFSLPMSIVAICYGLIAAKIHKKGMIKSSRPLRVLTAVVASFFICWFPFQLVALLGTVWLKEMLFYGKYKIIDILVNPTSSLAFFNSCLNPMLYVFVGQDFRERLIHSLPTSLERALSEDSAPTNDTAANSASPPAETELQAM
Put plainly: Measurement test of agonist activity on human FPRL1 (calcium mobilization in HEK293 cells transfected with human FPRL1 and Gα15). Format: cell-based. The following applies: Fluo-4 NW, molar concentration giving 50% maximum activation, read-out: Efficacy EC50. From the text: Measurement test of agonist activity on human FPRL1
(1-1) Construction of Human FPRL1 Expression Vector
Human FPRL (SEQ ID NO: 3) was amplified in a PCR reaction from cDNA derived from a monocytic leukemia cell line THP-1 (TIB-202, ATCC) as a template using a forward primer shown in SEQ ID NO: 1, a reverse primer shown in SEQ ID NO: 2, and KOD-plus-ver. 2 (KOD-211, TOYOBO CO., LTD.). […] 2 (LGK-201, TOYOBO CO., LTD.). The ligation product was transformed into DH5α (DNA-901, TOYOBO CO., LTD.), cultured on a 100 μg/mL kanamycin-containing LB medium, and purified with HiSpeed Plasmid Maxi Kit (12662, QIAGEN).
(1-2) Construction of Human Gα15 Expression Vector
2. The amplified PCR product and pCMV-script vector were digested with Hind III and XhoI, and the resultant digest was ligated with Ligation high ver. 2. The ligation product was transformed into DH5α, cultured on a 100 μg/mL kanamycin-containing LB medium, and purified with HiSpeed Plasmid Maxi Kit.
(2-1) Method for Culturing and Subculturing HEK293
HEK293 (JCRB9068, NIBIO) was cultured in an incubator at 5% CO2 and 37° C. using DMEM (11885-092, GIBCO) containing 10% FBS and 1cPenicillin-Streptomycin (15140-122, GIBCO).
(2-2) Introduction of Human FPRL1 and Gal5 Expression Vectors
The cells were inoculated in a Collagen Type 1 coated 6-well plate (4810-010, IWAKI) to 5×10^5 cells/2.5 mL/well and cultured overnight. On the next day, human FPRL1 and Gα15 expression vectors were introduced using Lipofectamine 2000 transfection reagent (11668-019, Life technologies). First, the human FPRL1 and Gal5 expression vectors were diluted with Opti-MEM I Reduced Serum Medium (31985-070, GIBCO) to 2 μg/250 μL/well and Lipofectamine 2000 transfection reagent was diluted with Opti-MEM I Reduced Serum Medium to be 4 μL/250 μL/well. The vectors and reagent were softly diffused, and incubated at room temperature for 5 minutes. The vector solution was mixed with Lipofectamine 2000 transfection reagent in equal amounts. In order to form a complex of the vectors and Lipofectamine 2000 transfection reagent, the mixture was incubated at room temperature for 20 minutes, and added at 500 μL/well to the medium of inoculated cells. The treated cells were cultured for 24 hours, inoculated in Poly-D-Lysine coated 96-well plate (356640, BD Biosciences) at a cell density of 7×10^4 cells/100 μL/well, and cultured for another 24 hours. The resultant cells were used in a measurement test of calcium mobilization in the cells.
(3) Evaluation of Agonist Activity on Human FPRL1 (Test of Calcium Mobilization in Cell)
An appropriate amount of each test compound was first weighed, and dissolved to 10^−2 M by addition of dimethyl sulfoxide (DMSO). […] The plate dispensed with compound solutions was set in Flexstation (Molecular Devices, LLC.) until measurement.
Subsequently, 10 mL of assay buffer and 100 μL of probenecid solution (dissolved by addition of 1 mL of assay buffer to a 250 mM stock) were sufficiently mixed and dissolved in Fluo-4 NW dye mix. The medium of cells inoculated on the previous day was removed, the dissolved Fluo-4 NW dye mix was added in an amount of 90 μL/well, and a reaction was caused in the dark at 37° C. for 45 minutes. The cells after the reaction and chips for addition of the compound were set in Flexstation, and variation in fluorescence intensity over time after addition of the compound was measured [amount of added compound=10 μL (final concentration: 10^−5 M to 10^−12 M), excitation wavelength: 485 nm, measured wavelength: 525 nm, 1.5 sec×54 read]. A value was calculated by subtracting a base value during addition of DMSO from the maximum value of relative fluorescence unit, and analyzed. All the measurement data were analyzed with Prism 4 that was a data analysis tool.

Molecules are shown by their SMILES.

Regarding `COc1ccc([C@@H]2COCC2NC(=O)Nc2ccc(Cl)cc2)cc1` (single isomer, unassigned; (+)) [Example 2-1 Isomer A, (+)-cis-1-(4-Chlorophenyl)-3-[4-(4-methoxyphenyl)tetrahydrofuran-3-yl]urea], the “Suppression Ratio” value in assay [1] (dose 3 mg/kg) came out at 82%. Besides, the EC50 on human FPRL1 came to 0.54 nM.

Regarding `COc1ccc([C@@H]2COCC2NC(=O)Nc2ccc(F)cc2)cc1` (single isomer, unassigned; (+)) [Example 3-1 Isomer A, (+)-cis-1-(4-Fluorophenyl)-3-[4-(4-methoxyphenyl)tetrahydrofuran-3-yl]urea], the “Suppression Ratio” value in assay [1] (dose 3 mg/kg) amounted to 80%. Moreover, the 50% effective concentration (EC50) at human FPRL1 was determined as 0.62 nM.

As for `COc1cc(F)c([C@@H]2CN3CCON=C3[C@H]2NC(=O)Nc2ccc(F)cc2)c(F)c1` (relative stereo) [Example 7-7, 1-[(7R*,8S*)-7-(2,6-difluoro-4-methoxyphenyl)-4,6,7,8-tetrahydro-3H-pyrrolo[2,1-c][1,2,4]-oxadiazin-8-yl]-3-(4-fluorophenyl)urea], the “Suppression Ratio” value in assay [1] (dose 1 mg/kg) turned out to be 97%. The EC50 at human FPRL1 was 0.02 nM.

As usually defined, the EC50 is the concentration giving half of the maximal effect.

For the origin of these results see patent publication US10525058B2, “Urea derivative or pharmacologically acceptable salt thereof” (KYORIN PHARMACEUTICAL CO., LTD., priority 2015, dated 2020).
